Calls of active or inactive are those of the source.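 Rule for the calls: active = compounds giving half or more protection of infected cells from virus-caused growth loss, again on retest; inactive = the rest.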

For this assay, the system named is CEM cells HIV-1 protection, formazan growth assay. Description: NCI AIDS Antiviral Assay. The following applies: for IC50: measured here: growth of uninfected CEM cells. Summed up:
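Human CEM cells, uninfected and HIV-1-infected, received five drug concentrations, and growth was read by soluble formazan assay. Compounds giving at least 50% protection were retested; reproducible 100% protection defined confirmed active.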

In the case of `CC(C)O[C@H]1N(C2CC(N=[N+]=[N-])C(CO)O2)C(=O)NC(=O)[C@]1(C)Br` (some centres undefined), the concentration giving a half-maximal response (EC50) is 2.88 µM and the IC50 was more than 200 µM.
Consider `C[C@H](C(=O)O)C(=O)NC(=O)N(Cc1ccccc1)N=O`, for which the result was inactive.
Turning to `C#CCN1C(=O)NC(c2ccccc2)(c2ccccc2)C1=O.[C-]#[O+].[C-]#[O+].[C-]#[O+].[C-]#[O+].[C-]#[O+].[C-]#[O+].[Co].[Co]`, the EC50 is more than 200 µM and the half-maximal inhibitory concentration (IC50) stood at 8.91 µM.
For the compound `CCOC(=O)c1[nH]n(-c2ccccc2)c(=O)c1C=NC(C)=S`, the EC50 was more than 200 µM and the IC50 was more than 100 µM.
Turning to `O=C(O)c1cc(=O)c2cccc(O)c2[nH]1`, the EC50 is more than 200 µM and the IC50 was more than 200 µM.
For the compound `COc1cccc(C2=CCCCCC2)c1OC`, the EC50 is more than 200 µM and the half-maximal inhibitory concentration (IC50) was 79.4 µM.
Take `NC1=NN(O)C2=CC([N+](=O)[O-])C=CC2=N1` (centres undefined): the EC50 was more than 25.1 µM and the IC50 is 20.4 µM.
`C=C1c2nc3ccccc3n2C=C(c2ccc(C)cc2)N1c1ccc(OC)cc1`: the EC50 was more than 200 µM and the IC50 was 11.5 µM.
On to `CC(=C(C#N)C#N)c1ccc(F)cc1`, for which the EC50 was more than 138 µM and the IC50 was 112 µM.
As to `O=C(/C=C/c1cc(F)ccc1F)OCCc1ccccc1`, the outcome was inactive and the IC50 amounted to 141 µM.
As for `O=C1C=C(CCC2=CC(=O)c3ccccc3C2=O)C(=O)c2ccccc21`, the EC50 is more than 200 µM and the IC50 came out at 91.2 µM.
In the case of `O=C(O)c1c[nH]cc1C(=O)O`, the result was inactive.
Regarding `O=c1c2cc([N+](=O)[O-])ccc2sc2ccsc12`, the EC50 is more than 97.7 µM and the half-maximal inhibitory concentration (IC50) was more than 97.7 µM.
For `COc1cc2oc(-c3ccccc3)cc(=O)c2c(O)c1C`, the EC50 was more than 33.1 µM and the IC50 was more than 33.1 µM.
Regarding `COC1OC2C(CO)OC(n3ncc4c3ncn3cnnc43)C2O1` (centres undefined), the EC50 was more than 234 µM and the IC50 was more than 234 µM.
In the case of `Oc1ccc2occ3c2c1CCC3`, the result was inactive.
Same read-out and setting: to `COc1ccccc1N=C(N)N/N=C/c1c[nH]c2ccccc12` belongs “inactive”.
On to `Cc1cc2cc3c(C)cc(=O)oc3c(C)c2o1`, for which the EC50 is more than 56.2 µM and the half-maximal inhibitory concentration (IC50) was more than 56.2 µM.
For the compound `COc1c(O)cc2oc(-c3ccc(O)c(O)c3)cc(=O)c2c1O`, the EC50 is more than 38 µM and the IC50 was determined as 22.9 µM.
For `COc1ccc2c(c1)C(=O)C13CC(C(=O)OCc4ccccc4)C(OC(C)=O)(CCC21)C3` (centres undefined), the EC50 was more than 72.4 µM and the IC50 was more than 72.4 µM.
In the case of `COc1csc([C@H]2CCC3[C@@H]4CC=C5C[C@@H](O)CC[C@]5(C)C4CC[C@@]32C)n1` (some centres undefined), the EC50 was more than 17.4 µM and the IC50 is more than 17.4 µM.
`CC(=O)N(C)C(c1ccccc1)(c1ccccc1)c1ccccc1`: the EC50 is more than 200 µM and the IC50 was determined as 35.5 µM.
As to `COc1cccc2c1C(=O)c1c(O)c3c(c(O)c1C2=O)CC(O)(C(O)CO)CC3OC1CC(N2CCOCC2)C(O)C(C)O1` (centres undefined), the EC50 was more than 0.2 µM and the IC50 amounted to 0.00355 µM.
For `C(=N\NC1=NCCCN1)/c1ccc(-c2cn3cc(/C=N/NC4=NCCCN4)ccc3n2)cc1`, the EC50 was more than 100 µM and the IC50 worked out at 18.6 µM.
In the same order, the values of `COC(=O)c1ccc(S)c(S(=O)(=O)Nc2n[nH]c(N)n2)c1` are more than 200 µM and more than 200 µM.
As to `COc1ccccc1N(CN1C(=O)CCC1C(=O)O)C(C)=O` (centres undefined), the result was inactive.
On the same count and under the same terms, to `OC(c1ccc(Cl)cc1)(c1ccc(Cl)cc1)c1cncnc1` belongs “inactive”.
`O=C1/C(=C\c2ccc(Cl)cc2)SC2SC=C(c3ccc([N+](=O)[O-])cc3)N12` (centres undefined): the EC50 was more than 200 µM and the IC50 worked out at 26.3 µM.
Consider `Cc1cc(S(=O)(=O)Nc2nnc3c(C(F)(F)F)cc(Cl)cn23)c(S)cc1Cl`, for which the EC50 is 166 µM and the IC50 came out at 170 µM.
With `N#Cc1c(O)c(N=Nc2ccc(Cl)cc2)c(=O)n2c1[nH]c1ccccc12`, the EC50 is more than 200 µM and the IC50 turned out to be 53.7 µM.

Broadly, the EC50 is the midpoint of the concentration-response curve. For orientation: IC50 means the concentration that inhibits the measured activity by half.
